Where two headings read alike, the source gives them in different places.
Legend:
[1] = cited from earlier work
[2] = Stability of ceftriaxone stock and working solutions; settings: for Stock solution stability: stock solution 10 mg/ml in water; for Working solution stability: weakest working solution 50 µg/ml
Experimental: (§1) Stock solution 10 mg/ml was evaluated at -80°C and at +4°C for 5 days, and in room temperature (+24°C) for 8 hrs. The lowest concentration of working solution 50 µg/ml was also evaluated at -80°C for 5 days and at room temperature (24°C) for 5 hrs. Spiked plasma stored at ambient temperature and at 4°C for 48 h was used to evaluate short-term stability. Long-term stability of spiked samples at -80°C was evaluated after 7 months. Freeze-thaw stability was evaluated for plasma samples and haemolysed plasma samples for five cycles. The samples were stored at -80°C for 24 h followed by unassisted thawing at room temperature for 2–3 h and subsequent re-freezing at -80°C. The stability of precipitated samples stored at ambient temperature (about 23°C) for 4 h was also evaluated. The stability of extracted samples in the LC autosampler kept at 10°C was evaluated by re-injecting the calibrators and QC samples 65 h after initial injection. The acceptance criteria for stability was achieved when the RSD of stability samples was below ±15%, and the accuracy of mean concentrations was within ±15% of nominal concentration.
(§2) The stability samples were quantified using a calibration curve in CPD plasma. Stability samples in CPD plasma were compared to the average measured concentration of CPD QC samples added in the same run. The CPD calibration curve was also used to quantify heparin and EDTA stability samples due to limited supply of volunteer donor blood. However, since EDTA and heparin have different recovery from plasma compared to CPD, a direct comparison would be biased. Thus, stability samples were instead compared with the average measured concentration of the precision and accuracy of each anticoagulant.

[3] = Stability of ceftriaxone in spiked human plasma under different storage conditions (LC-MS/MS); type: physicochemical; settings: for Stability, Precipitated 4hrs in RT: protein precipitated; for Stability in plasma, F/T cycle 5 / Stability in plasma, F/T cycle 3: freeze -80°C/thaw RT; for Stability in plasma, RT 24 hrs / Stability in plasma, RT 48 hrs: RT about 23°C
Experimental: as §1, §2

[4] = Stability of extracted samples in the LC autosampler at 10°C; type: physicochemical, human
[5] = Stability of ceftriaxone in acidic (pH about 2) and neutral pH dilutions; settings: +4°C
[6] = cited from earlier work; remark: listed apart in the source
[7] = QC1, 2.97 µg/ml, CPD haemolysis plasma
[8] = QC1, 2.97 µg/ml, CPD plasma, vs average measured CPD QC concentration in same run
[9] = QC1, 2.97 µg/ml, EDTA plasma, vs average of four precision and accuracy batches
[10] = QC1, 2.97 µg/ml, EDTA plasma, vs average of four precision and accuracy batches for this anticoagulant
[11] = QC1, 2.97 µg/ml, Li-heparin plasma, vs average of four precision and accuracy batches
[12] = QC1, 2.97 µg/ml, Na-heparin haemolysis plasma
[13] = QC1, 2.97 µg/ml, Na-heparin plasma, vs average of four precision and accuracy batches
[14] = QC3, 155 µg/ml, CPD haemolysis plasma
[15] = QC3, 155 µg/ml, CPD plasma, vs average measured CPD QC concentration in same run
[16] = QC3, 155 µg/ml, EDTA plasma, vs average of four precision and accuracy batches
[17] = QC3, 155 µg/ml, Li-heparin plasma, vs average of four precision and accuracy batches
[18] = QC3, 155 µg/ml, Na-heparin haemolysis plasma
[19] = QC3, 155 µg/ml, Na-heparin plasma, vs average of four precision and accuracy batches

For `CO/N=C(\C(=O)N[C@@H]1C(=O)N2C(C(=O)O)=C(CSc3nc(=O)c(=O)[nH]n3C)CS[C@H]12)c1csc(N)n1` [ceftriaxone], the “Mean plasma concentration 24 h after administration” value (“Mean plasma concentration 24 h” below) ([1]; 0.5-g intravenous dose) is listed as 5300 ng/mL, the “Mean plasma concentration 24 h” value ([1]; 1-g intravenous dose) is listed as 9300 ng/mL and the “Mean plasma concentration 24 h” value ([1]; 2-g intravenous dose) is listed as 15100 ng/mL. For the same compound, the “Population mean peak levels” value ([1]; standard 2-g daily dose, critically ill patients with sepsis) was “below 200 μg/ml”, the Stock solution stability ([2]; +4°C for 5 days) was “above 98%” and the Stock solution stability ([2]; -80°C for 5 days) was “above 98%”. The Stock solution stability ([2]; workbench +24°C for 8 hrs) was “above 98%”, the Working solution stability ([2]; -80°C for 5 days) was “about 98%” and the Working solution stability ([2]; workbench +24°C for 5 hrs) was “about 98%”. For the same compound, the “Stability, Precipitated 4hrs in RT” value [3, 7] was 99.3%, the “Stability in plasma, F/T cycle 5” value [3, 7] was 88.4% and the “Stability, Precipitated 4hrs in RT” value [3, 8] was 94.2%. For the same compound, the “Stability in plasma, RT 24 hrs” value [3, 8] was 106%, the “Stability in plasma, RT 48 hrs” value [3, 8] was 100% and the “Stability in plasma, F/T cycle 3” value [3, 8] was 97.7%. For the same compound, the “Stability in plasma, F/T cycle 5” value [3, 8] was 94.0%, the “Stability in plasma, 4°C 24 hrs” value [3, 8] was 102% and the “Stability in plasma, 4°C 48 hrs” value [3, 8] was 103%. For the same compound, the “Stability in plasma, -80°C 224 days” value [3, 8] was 103%, the “Stability, Precipitated 4hrs in RT” value [3, 9] was 98.0% and the “Stability in plasma, RT 24 hrs” value [3, 10] was 105%. The “Stability in plasma, F/T cycle 3” value [3, 9] was 103%, the “Stability in plasma, F/T cycle 5” value [3, 9] was 103% and the “Stability in plasma, -80°C 224 days” value [3, 9] was 95.5%. The “Stability in plasma, 4°C 24 hrs” value [3, 10] was 113%, the “Stability, Precipitated 4hrs in RT” value [3, 11] was 103% and the “Stability in plasma, RT 24 hrs” value ([3]; QC1, 2.97 µg/ml, Li-heparin plasma, vs average of four precision and accuracy batches for this anticoagulant) was 105%. For the same compound, the “Stability in plasma, F/T cycle 3” value [3, 11] was 95.7%, the “Stability in plasma, F/T cycle 5” value [3, 11] was 99.5% and the “Stability in plasma, 4°C 24 hrs” value [3, 11] was 98.3%. For the same compound, the “Stability in plasma, -80°C 224 days” value [3, 11] was 96.0%, the “Stability, Precipitated 4hrs in RT” value [3, 12] was 91.9% and the “Stability in plasma, F/T cycle 3” value [3, 12] was 91.3%. For the same compound, the “Stability in plasma, F/T cycle 5” value [3, 12] was 97.6%, the “Stability, Precipitated 4hrs in RT” value [3, 13] was 96.8% and the “Stability in plasma, RT 24 hrs” value ([3]; QC1, 2.97 µg/ml, Na-heparin plasma, vs average of four precision and accuracy batches for this anticoagulant) was 103%. The “Stability in plasma, F/T cycle 3” value [3, 13] was 100%, the “Stability in plasma, F/T cycle 5” value [3, 13] was 98.7% and the “Stability in plasma, 4°C 24 hrs” value [3, 13] was 109%. The “Stability in plasma, -80°C 224 days” value [3, 13] was 93.7%, the “Stability, Precipitated 4hrs in RT” value [3, 14] was 94.3% and the “Stability in plasma, F/T cycle 5” value [3, 14] was 98.6%. For the same compound, the “Stability, Precipitated 4hrs in RT” value [3, 15] was 101%, the “Stability in plasma, RT 24 hrs” value [3, 15] was 99.8% and the “Stability in plasma, RT 48 hrs” value [3, 15] was 99.6%. For the same compound, the “Stability in plasma, F/T cycle 3” value [3, 15] was 99.1%, the “Stability in plasma, F/T cycle 5” value [3, 15] was 95.0% and the “Stability in plasma, 4°C 24 hrs” value [3, 15] was 101%. The “Stability in plasma, -80°C 224 days” value [3, 15] was 109%, the “Stability, Precipitated 4hrs in RT” value [3, 16] was 90.9% and the “Stability in plasma, F/T cycle 3” value [3, 16] was 97.9%. The “Stability in plasma, F/T cycle 5” value [3, 16] was 95.5%, the “Stability in plasma, 4°C 24 hrs” value [3, 16] was 104% and the “Stability in plasma, -80°C 224 days” value [3, 16] was 92.8%. The “Stability, Precipitated 4hrs in RT” value [3, 17] was 91.4%, the “Stability in plasma, RT 24 hrs” value ([3]; QC3, 155 µg/ml, Li-heparin plasma, vs average of four precision and accuracy batches for this anticoagulant) was 101% and the “Stability in plasma, F/T cycle 3” value [3, 17] was 96.1%. The “Stability in plasma, F/T cycle 5” value [3, 17] was 94.2%, the “Stability in plasma, 4°C 24 hrs” value [3, 17] was 108% and the “Stability in plasma, -80°C 224 days” value [3, 17] was 98.8%. The “Stability, Precipitated 4hrs in RT” value [3, 18] was 88.8%, the “Stability in plasma, F/T cycle 3” value [3, 18] was 90.4% and the “Stability in plasma, F/T cycle 5” value [3, 18] was 88.5%. The “Stability, Precipitated 4hrs in RT” value [3, 19] was 88.2%, the “Stability in plasma, F/T cycle 3” value [3, 19] was 97.5% and the “Stability in plasma, F/T cycle 5” value [3, 19] was 93.7%. The “Stability in plasma, 4°C 24 hrs” value [3, 19] was 106%, the “Stability in plasma, -80°C 224 days” value [3, 19] was 94.5% and the “Stability of protein precipitated samples” value ([3]; ambient temperature (about 23°C) for 4 h prior to transfer to Phree plate) was “good stability”. For the same compound, the “Freeze-thaw stability in plasma” value ([3]; five cycles, QC samples in all anticoagulants, including plasma with moderate haemolysis) was “good stability”, the “Short-term stability in plasma” value ([3]; up to 24 h at ambient temperature (about 23°C) and 4°C in all anticoagulants, CPD plasma up to 48 h) was “confirmed” and the “Variation in QC concentrations” value ([4]; extracted samples in LC autosampler 10°C up to 65 h, full set of calibrators and QC re-injected) was “less than 10%”. The “Loss, original injection vs 65-h injection” value ([4]; extracted samples in LC autosampler 10°C, 65 h) was “about 20%”, the Degradation ([5]; 10 mM ammonium formate containing 2% formic acid (pH about 2), dark, 48 hrs) was 95% and the “Remaining of initial concentration” value ([5]; ammonium formate 10 mM with 2% formic acid (pH about 2), 2 days (48 hrs)) was 5%. The “Remaining of initial concentration” value ([5]; ammonium formate 10 mM with 2% formic acid (pH about 2), 3 days) was “less than 1%”, the “Remaining of initial concentration” value ([5]; dilutions in solutions with neutral pH, 2 and 3 days) was 95–100% and the Degradation ([6]; acid hydrolysis with 0.1 M hydrochloric acid, 30 minutes, ref Shrestha et al. 24) was 19.6%. For the same compound, the LC-stability ([6]; post-extraction dilution of samples using 0.5% formic acid in water, ref Herrera-Hidalgo et al. 31) was 4 h.
